Measured values taken from patent publication US20090130035A1, “STABILIZED PREPARATIONS COMPRISING PHENOLIC COMPOUNDS AND BENZOPHENONES” (SYMRISE GmbH & Co. KG, priority 2006, published 2009).

Columns and labels:
Format in all cases: physicochemical
[1] = Irradiation (24 h UV test, Ultra-Vitalux W300) of oil phase solutions, chromametric b* values; conditions: for b* value: after irradiation
Experimental: In order to examine to what extent the stability of the compound of the formula (IA) can be increased by predissolution in an oil phase to which an oil-soluble photoprotective filter of the formula (II) is added, irradiation experiments were conducted. The oil phase used was 2-ethylhexyl isononanoate (INCI: Ethylhexyl isononanoate). The amount of 4-(1-phenylethyl)-1,3-dihydroxybenzene (formula (IA) was in this case in a range from 10% to 20% by weight, based on the amount of oil phase. The amount of the photoprotective filter added for colour stabilization, 2-hydroxy-4-methoxybenzophenone (INCI: Benzophenone-3, formula (IIC)), was in each case 1% by weight. In order to examine to what extent the addition of a photoprotective filter of the formula (II) is advantageous, all of the samples were irradiated for 24 hours with light (light source: Ultra-Vitalux W300). For the measurement of any colour changes that occurred, all of the samples were subjected to chromametry both before and after irradiation to determine the b* values, which represent a measure of the shift in the blue-yellow axis and so give a direct indication of a yellow discoloration occurring.

[2] = pH series: aqueous-ethanolic solutions stored in the dark for 28 days, chromametric b* values; conditions: after 28 days, without disodium EDTA
Experimental: In order to examine to what extent the degradation and the associated yellow to brown discoloration of 4-(1-phenylethyl)-1,3-dihydroxybenzene (CARN: 85-27-8; formula (IA)) in cosmetic and pharmaceutical formulations is also influenced by the pH value of the preparation, serial pH experiments were conducted, by dissolving 4-(1-phenylethyl)-1,3-dihydroxybenzene (CARN: 85-27-8; formula (IA)) in aqueous/ethanolic solutions which had been adjusted to different pH values (pH 4, 5, 7 and 9, Table 2) using buffer solutions. The amount of 4-(1-phenylethyl)-1,3-dihydroxybenzene (CARN: 85-27-8; formula (IA)) was in each case 0.5 percent by weight. All of the samples were stored in the dark for 28 days at room temperature. In order to measure any colour changes occurring, all samples were subjected to chromametric determination, both at the beginning of the experiment and at the end of a storage time of 28 days, of the b* values, which represent a measure of the shift in the blue-yellow axis and therefore give a direct indication of any yellow discoloration occurring.

[3] = pH series with disodium EDTA: aqueous-ethanolic solutions stored in the dark for 28 days, chromametric b* values; conditions: after 28 days
From the text: The amount of 4-(1-phenylethyl)-1,3-dihydroxybenzene (CARN: 85-27-8; formula (IA)) was again in each case 0.5 percent by weight. The samples were likewise stored in the dark at room temperature for 28 days.

b* value ([1]; reference specimen not stabilized with benzophenone-3): 34.0
b* value ([1]; solution with 10 percent by weight, plus 1 percent benzophenone-3): 10.3
b* value ([1]; solution with 15 percent by weight, plus 1 percent benzophenone-3): 15.5
b* value ([1]; solution with 20 percent by weight, plus 1 percent benzophenone-3): 10.6
stability of solutions on irradiation with light ([1]; light source Ultra-Vitalux W300, yellowish to brownish discoloration): a certain instability
b* value ([2]; pH 4, 0.5% solution): 2.0
b* value ([2]; pH 5, 0.5% solution): 4.6
b* value ([2]; pH 7, 0.5% solution): 19.4
b* value ([2]; pH 9, 0.5% solution): 55.3
b* value ([3]; pH 4, 0.5% solution): 1.5
b* value ([3]; pH 5, 0.5% solution): 3.6
b* value ([3]; pH 7, 0.5% solution): 14.8
b* value ([3]; pH 9, 0.5% solution): 40.2
SMILES: CC(c1ccccc1)c1ccc(O)cc1O (stereo not shown) [4-(1-phenylethyl)-1,3-dihydroxybenzene]
